In patent US12371428B2 (Exelixis, Inc., priority 2019, dated 2025):
Counter-ions that a name gives are not always drawn. Like-named read-outs stand apart in the source and are kept apart here.

Assays:
[1] = molecular target: Human KDR (residues 790-1356) (Homo sapiens (Human), UniProt P35968); test: Human KDR kinase assay, HTRF KinEase (Example B-2); type: biochemical
Summary of the method: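 Ten compound concentrations (3% DMSO final) were pre-plated, then KDR (790-1356) with biotinylated peptide in Mg/Mn/DTT buffer was added; ATP at Km (4.0 μM) started a 40 min room-temperature reaction. Detection used Eu-TK antibody and SA-XL665 in EDTA buffer; activity normalized to DMSO and reference inhibitor, IC50 by logistic fit.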

[2] = molecular target: Human MET (residues 956-1390) (Homo sapiens (Human), UniProt P08581); test: Human Met kinase assay, HTRF KinEase (Example D-2); type: biochemical; conditions: read-out: c-Met IC50
Sequence of Human MET (residues 956-1390) (P08581 956-1390): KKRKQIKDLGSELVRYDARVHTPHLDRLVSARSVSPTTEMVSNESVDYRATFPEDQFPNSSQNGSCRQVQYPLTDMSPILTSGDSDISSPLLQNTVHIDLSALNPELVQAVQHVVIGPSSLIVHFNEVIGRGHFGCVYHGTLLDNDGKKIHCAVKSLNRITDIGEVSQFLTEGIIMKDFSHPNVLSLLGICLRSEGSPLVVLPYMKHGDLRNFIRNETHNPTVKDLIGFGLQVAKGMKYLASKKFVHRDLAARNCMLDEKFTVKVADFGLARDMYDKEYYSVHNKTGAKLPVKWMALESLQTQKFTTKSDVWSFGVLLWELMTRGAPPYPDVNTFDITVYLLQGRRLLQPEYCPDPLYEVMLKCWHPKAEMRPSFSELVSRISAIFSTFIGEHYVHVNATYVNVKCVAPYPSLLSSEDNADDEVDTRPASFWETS
Summary of the method: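 IC50 values come from a 4-parameter logistic fit of the […] fluorescence ratio, set between DMSO (100%) and reference compound at 1 μM (0%). Reactions held MET 956-1390 at 0.1 ng/well, ATP at Km, biotinylated peptide, 5 mM MgCl2, 1 mM MnCl2, 1 mM DTT and 3% DMSO, and ran 40 min at room temperature before streptavidin-XL665/Eu-antibody detection.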

[3] = molecular target: Met (phospho-Met, HGF-stimulated PC-3 prostate cancer cells) (Homo sapiens (Human), UniProt P08581); test: Met autophosphorylation ELISA in PC-3 cells (Example F); type: cell-based; conditions: cellular activity; Met autophosphorylation ELISA in PC-3 cells; read-out: c-Met IC50
Sequence of Met (phospho-Met, HGF-stimulated PC-3 prostate cancer cells) (P08581 25-1390): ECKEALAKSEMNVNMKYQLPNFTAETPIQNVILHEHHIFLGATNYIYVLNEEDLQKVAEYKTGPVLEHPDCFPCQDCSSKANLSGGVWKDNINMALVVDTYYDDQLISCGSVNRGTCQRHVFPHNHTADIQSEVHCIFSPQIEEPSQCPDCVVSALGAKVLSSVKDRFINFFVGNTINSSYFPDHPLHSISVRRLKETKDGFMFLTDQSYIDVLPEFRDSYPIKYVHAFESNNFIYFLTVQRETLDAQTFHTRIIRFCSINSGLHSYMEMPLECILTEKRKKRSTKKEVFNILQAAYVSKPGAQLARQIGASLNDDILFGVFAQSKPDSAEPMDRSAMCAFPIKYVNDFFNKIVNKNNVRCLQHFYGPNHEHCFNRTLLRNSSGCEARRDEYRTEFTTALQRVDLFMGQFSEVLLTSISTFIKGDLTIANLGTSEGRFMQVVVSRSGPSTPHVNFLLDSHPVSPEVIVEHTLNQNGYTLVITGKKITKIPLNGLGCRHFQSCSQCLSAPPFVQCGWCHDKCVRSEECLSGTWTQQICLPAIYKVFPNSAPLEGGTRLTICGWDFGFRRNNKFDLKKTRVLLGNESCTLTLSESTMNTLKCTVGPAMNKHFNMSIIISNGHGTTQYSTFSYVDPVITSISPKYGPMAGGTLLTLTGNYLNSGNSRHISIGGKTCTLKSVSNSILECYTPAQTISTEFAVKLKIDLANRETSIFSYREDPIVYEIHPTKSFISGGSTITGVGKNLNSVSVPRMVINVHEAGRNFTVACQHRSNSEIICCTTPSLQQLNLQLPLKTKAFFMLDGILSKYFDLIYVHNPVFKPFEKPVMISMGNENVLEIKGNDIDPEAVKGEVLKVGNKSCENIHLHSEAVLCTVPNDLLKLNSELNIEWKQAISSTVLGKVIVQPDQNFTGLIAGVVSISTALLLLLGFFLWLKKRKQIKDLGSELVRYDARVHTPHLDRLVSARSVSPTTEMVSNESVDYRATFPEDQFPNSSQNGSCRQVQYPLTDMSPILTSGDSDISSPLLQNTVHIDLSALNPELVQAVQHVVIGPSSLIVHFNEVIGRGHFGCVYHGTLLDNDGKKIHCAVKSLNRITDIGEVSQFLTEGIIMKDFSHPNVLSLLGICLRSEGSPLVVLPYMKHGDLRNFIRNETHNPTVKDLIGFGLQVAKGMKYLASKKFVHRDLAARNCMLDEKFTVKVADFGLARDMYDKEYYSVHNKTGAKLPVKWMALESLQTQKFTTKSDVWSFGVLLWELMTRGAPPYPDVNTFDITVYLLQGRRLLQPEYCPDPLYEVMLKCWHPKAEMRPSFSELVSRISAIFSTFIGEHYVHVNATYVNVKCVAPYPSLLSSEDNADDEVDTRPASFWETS
Summary of the method: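 IC50 values derive from a 4-parameter logistic fit of phospho-Met (panTyr) sandwich ELISA signals in PC-3 lysates, scaled between DMSO and reference-inhibitor wells. Cells, starved 3 h in serum-free medium, had 1 h compound exposure (8 doses, 0.3% DMSO) before 10 min stimulation with 100 ng/mL HGF.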

[4] = molecular target: Mer (phospho-Mer, MERTK-transfected 293A cells) (Homo sapiens (Human), UniProt Q12866); test: Mer autophosphorylation ELISA in transient transfected 293A cells (Example H); type: cell-based; conditions: cellular activity; Mer autophosphorylation ELISA in transient transfected 293A cells
Sequence of Mer (phospho-Mer, MERTK-transfected 293A cells) (Q12866 21-999): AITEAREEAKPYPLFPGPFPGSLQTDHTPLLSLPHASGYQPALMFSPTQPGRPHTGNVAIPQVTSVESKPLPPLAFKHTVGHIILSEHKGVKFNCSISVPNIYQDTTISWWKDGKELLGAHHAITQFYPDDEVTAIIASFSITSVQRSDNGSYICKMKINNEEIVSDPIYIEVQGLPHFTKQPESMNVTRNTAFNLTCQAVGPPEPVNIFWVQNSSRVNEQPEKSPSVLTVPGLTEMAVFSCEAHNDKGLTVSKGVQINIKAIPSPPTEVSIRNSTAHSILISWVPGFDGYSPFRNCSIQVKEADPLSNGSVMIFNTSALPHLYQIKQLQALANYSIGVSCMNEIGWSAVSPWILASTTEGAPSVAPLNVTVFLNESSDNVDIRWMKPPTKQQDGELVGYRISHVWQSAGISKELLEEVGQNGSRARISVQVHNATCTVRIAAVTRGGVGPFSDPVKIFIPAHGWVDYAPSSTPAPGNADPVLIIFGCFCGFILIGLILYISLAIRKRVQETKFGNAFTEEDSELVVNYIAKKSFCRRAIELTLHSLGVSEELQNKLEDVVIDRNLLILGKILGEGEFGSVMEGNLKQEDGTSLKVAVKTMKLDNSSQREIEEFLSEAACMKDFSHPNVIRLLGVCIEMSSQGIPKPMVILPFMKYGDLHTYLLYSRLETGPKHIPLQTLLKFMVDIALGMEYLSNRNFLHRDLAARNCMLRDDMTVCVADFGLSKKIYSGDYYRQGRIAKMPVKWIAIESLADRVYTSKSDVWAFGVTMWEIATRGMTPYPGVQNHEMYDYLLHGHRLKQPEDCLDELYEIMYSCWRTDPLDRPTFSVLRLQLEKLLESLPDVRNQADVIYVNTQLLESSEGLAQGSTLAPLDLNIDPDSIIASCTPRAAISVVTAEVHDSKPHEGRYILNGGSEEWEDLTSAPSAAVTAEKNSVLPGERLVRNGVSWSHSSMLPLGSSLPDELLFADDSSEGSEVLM
Summary of the method: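 IC50 from 4-parameter logistic fit of phospho-Mer levels, quantified by ELISA against a phospho-Mer standard in lysates of MERTK-transfected 293A cells. Cells exposed 1 h to 8-point serial dilutions, serum-free, 0.3% DMSO; controls: DMSO (100%) and reference inhibitor (0%).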

[5] = protocol of Example B-2 (other compounds)
[6] = protocol of Example D-2 (other compounds)

Sequence of Human KDR (residues 790-1356) (P35968 790-1356): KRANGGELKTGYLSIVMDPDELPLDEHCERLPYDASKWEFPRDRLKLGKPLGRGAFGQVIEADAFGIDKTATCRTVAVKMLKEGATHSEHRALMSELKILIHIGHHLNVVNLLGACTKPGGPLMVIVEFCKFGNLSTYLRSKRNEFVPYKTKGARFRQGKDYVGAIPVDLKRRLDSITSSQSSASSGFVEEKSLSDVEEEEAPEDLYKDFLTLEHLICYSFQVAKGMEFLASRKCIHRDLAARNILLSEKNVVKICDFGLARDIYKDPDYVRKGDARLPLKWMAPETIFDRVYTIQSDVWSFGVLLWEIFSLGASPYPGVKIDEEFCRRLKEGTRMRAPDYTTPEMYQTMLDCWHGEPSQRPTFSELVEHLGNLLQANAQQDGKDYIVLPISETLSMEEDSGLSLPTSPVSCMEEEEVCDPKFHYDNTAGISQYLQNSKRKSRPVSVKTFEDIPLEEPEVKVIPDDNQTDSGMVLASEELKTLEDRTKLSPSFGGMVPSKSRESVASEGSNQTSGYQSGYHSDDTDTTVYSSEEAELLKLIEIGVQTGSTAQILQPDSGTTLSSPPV

SMILES	IC50 ([1]; protocol of Example B-2) [nM]	IC50 ([2]; protocol of Example D-2) [nM]	IC50 [3] [nM]	IC50 [4] [nM]	IC50 [1, 5] [nM]	IC50 [2, 6] [nM]
CCn1cc(C(=O)Nc2ccc(Oc3ccnc4cc(OC)cnc34)cc2)c(=O)c(-c2ccc(F)cc2)c1 [Compound 169, 1-Ethyl-5-(4-fluorophenyl)-N-[4-[(7-methoxy-1,5-naphthyridin-4-yl)oxy]phenyl]-4-oxopyridine-3-carboxamide]	–	–	< 100	< 100	> 300	< 100
COc1cc2nccc(Oc3ccc(NC(=O)c4cn(OC)cc(-c5ccc(F)cc5)c4=O)cc3)c2nc1OC [Compound 127, N-[4-[(6,7-Dimethoxy-1,5-naphthyridin-4-yl)oxy]phenyl]-5-(4-fluorophenyl)-1-methoxy-4-oxopyridine-3-carboxamide]	–	–	< 100	< 100	< 100	< 100
CCn1cc(C(=O)Nc2ccc(Oc3ccnc4cc(OC)c(OC)nc34)cc2)c(=O)c(-c2ccc(F)cc2)c1C [Compound 168, N-[4-[(6,7-Dimethoxy-1,5-naphthyridin-4-yl)oxy]phenyl]-1-ethyl-5-(4-fluorophenyl)-6-methyl-4-oxopyridine-3-carboxamide]	–	–	< 100	< 100	100 to 300	< 100
COc1cc2nccc(Oc3ccc(NC(=O)c4cnc(C)c(-c5ccc(F)cc5)c4O)cc3F)c2nc1OC [Compound 28, N-[4-[(6,7-Dimethoxy-1,5-naphthyridin-4-yl)oxy]-3-fluorophenyl]-5-(4-fluorophenyl)-4-hydroxy-6-methylpyridine-3-carboxamide]	–	–	< 100	< 100	< 100	< 100
COc1cc2nccc(Oc3ccc(NC(=O)c4c(C)nc(C)c(-c5ccc(F)cc5)c4O)cc3)c2nc1OC [Compound 173, N-[4-[(6,7-Dimethoxy-1,5-naphthyridin-4-yl)oxy]phenyl]-5-(4-fluorophenyl)-4-hydroxy-2,6-dimethylpyridine-3-carboxamide]	–	–	< 100	< 100	< 100	< 100
COCCOc1nc2c(Oc3ccc(NC(=O)c4cnc(C)c(-c5ccc(F)cc5C)c4O)cc3F)ccnc2cc1OC [Compound 144, N-[3-Fluoro-4-[[7-methoxy-6-(2-methoxyethoxy)-1,5-naphthyridin-4-yl]oxy]phenyl]-5-(4-fluoro-2-methylphenyl)-4-hydroxy-6-methylpyridine-3-carboxamide]	–	–	< 100	< 100	< 100	< 100
COc1cc2nccc(Oc3ccc(NC(=O)c4cn(C(C)(C)C)c(C)c(-c5ccc(F)cc5)c4=O)cc3F)c2nc1OC [Compound 139, 1-tert-Butyl-N-[4-[(6,7-dimethoxy-1,5-naphthyridin-4-yl)oxy]-3-fluorophenyl]-5-(4-fluorophenyl)-6-methyl-4-oxopyridine-3-carboxamide]	–	–	100 to 300	< 100	> 300	< 100
COc1nc2c(Oc3ccc(NC(=O)c4cn(C(C)C)cc(-c5ccc(F)cc5)c4=O)cc3F)ccnc2cc1Br [Compound 131, N-[4-[(7-Bromo-6-methoxy-1,5-naphthyridin-4-yl)oxy]-3-fluorophenyl]-5-(4-fluorophenyl)-4-oxo-1-propan-2-ylpyridine-3-carboxamide]	–	–	< 100	< 100	> 300	< 100
COc1cnc2c(Oc3ccc(NC(=O)c4cn(C(C)C)c(C)c(-c5ccc(F)cc5)c4=O)cc3F)ccnc2c1 [Compound 121, N-[3-Fluoro-4-[(7-methoxy-1,5-naphthyridin-4-yl)oxy]phenyl]-5-(4-fluorophenyl)-6-methyl-4-oxo-1-propan-2-ylpyridine-3-carboxamide]	–	–	< 100	< 100	> 300	< 100

Continued, values first:

IC50 ([1]; protocol of Example B-2) [nM]	IC50 ([2]; protocol of Example D-2) [nM]	IC50 [3] [nM]	IC50 [4] [nM]	IC50 [1, 5] [nM]	IC50 [2, 6] [nM]	SMILES
100 to 300	< 100	< 100	< 100	–	–	COc1cc2c(Oc3ccc(NC(=O)c4cnc(C)c(-c5ccc(F)cc5)c4O)cc3)ccnc2cn1 [Compound 644, 5-(4-fluorophenyl)-4-hydroxy-N-[4-[(6-methoxy-1,7-naphthyridin-4-yl)oxy]phenyl]-6-methylpyridine-3-carboxamide]
100 to 300	< 100	< 100	< 100	–	–	Cc1ncc(C(=O)Nc2ccc(Oc3ccnc4cc(-c5cnn(C(F)F)c5)cnc34)c(F)c2)c(O)c1-c1ccc(F)cc1 [Compound 610, N-[4-[[7-[1-(Difluoromethyl)pyrazol-4-yl]-1,5-naphthyridin-4-yl]oxy]-3-fluorophenyl]-5-(4-fluorophenyl)-4-hydroxy-6-methylpyridine-3-carboxamide hydrochloride]
< 100	< 100	< 100	< 100	–	–	CCn1nc(C(=O)Nc2ccc(Oc3ccnc4cc(OC)c(OC)nc34)c(F)c2)c(=O)c(-c2ccc(F)cc2)c1C [Compound 568, N-[4-[(6,7-Dimethoxy-1,5-naphthyridin-4-yl)oxy]-3-fluorophenyl]-1-ethyl-5-(4-fluorophenyl)-6-methyl-4-oxopyridazine-3-carboxamide]
< 100	< 100	< 100	< 100	–	–	COc1cc2nccc(Oc3ccc(NC(=O)c4cnc(N)n(-c5ccc(F)cc5)c4=O)cc3F)c2nc1OC [Compound 565, 2-Amino-N-[4-[(6,7-dimethoxy-1,5-naphthyridin-4-yl)oxy]-3-fluorophenyl]-1-(4-fluorophenyl)-6-oxopyrimidine-5-carboxamide]
> 300	< 100	100 to 300	< 100	–	–	Cc1nc2c(Oc3ccc(NC(=O)c4cn(C(C)C)c(C)c(-c5ccc(F)cc5)c4=O)cc3F)ccnc2cc1-c1cnn(C(F)F)c1 [Compound 614, N-[4-[[7-[1-(Difluoromethyl)pyrazol-4-yl]-6-methyl-1,5-naphthyridin-4-yl]oxy]-3-fluorophenyl]-5-(4-fluorophenyl)-6-methyl-4-oxo-1-propan-2-ylpyridine-3-carboxamide hydrochloride]
> 300	< 100	< 100	< 100	–	–	COc1cc2c(Oc3ccc(NC(=O)c4cnc(C)c(-c5ccc(F)cc5)c4O)cc3F)ccnc2cn1 [Compound 639, N-[3-fluoro-4-[(6-methoxy-1,7-naphthyridin-4-yl)oxy]phenyl]-5-(4-fluorophenyl)-4-hydroxy-6-methylpyridine-3-carboxamide]
–	–	< 100	< 100	< 100	< 100	COc1cc2nccc(Oc3ccc(NC(=O)c4cnc(C)c(-c5ccc(F)cc5C)c4O)cc3)c2nc1OC [Compound 174, N-[4-[(6,7-Dimethoxy-1,5-naphthyridin-4-yl)oxy]phenyl]-5-(4-fluoro-2-methylphenyl)-4-hydroxy-6-methylpyridine-3-carboxamide]
> 300	< 100	100 to 300	< 100	–	–	Cc1nc2c(Oc3ccc(NC(=O)c4cn(C(C)C)c(C)c(-c5ccc(F)cc5)c4=O)cc3)ccnc2cc1-c1cnn(C(F)F)c1 [Compound 612, N-[4-[[7-[1-(Difluoromethyl)pyrazol-4-yl]-6-methyl-1,5-naphthyridin-4-yl]oxy]phenyl]-5-(4-fluorophenyl)-6-methyl-4-oxo-1-propan-2-ylpyridine-3-carboxamide hydrochloride]
